Where two headings read alike, the source gives them in different places.
What was measured:
adenosine A2 receptor = biological target: T1, adenosine A2 receptor (Rattus norvegicus, UniProt P30543); assay: in vitro binding to adenosine A2 receptor ([3H]-CGS 21680)
T1 construct: from tissue
From the text: (§1) Evaluation of in vitro binding to adenosine A1 and A2 receptors.
(§2) The methods both for the above in vitro examination of the compounds and the method used for DMCM-induced seizures in vivo are summarized in the European Journal of Pharmacology, 1993, 224, 221-228.

[1] = DMCM-induced seizures in vivo; conditions: read-out: DMCM-ind. seizures (ED50, mg/kg)
From the text: as §2

adenosine A1 receptor = biological target: T2, adenosine A1 receptor (Rattus norvegicus, UniProt P25099); assay: in vitro binding to adenosine A1 receptor ([3H]-R-PIA); conditions: for Ki: radioligand [3H]-R-PIA; for Ratio A2/A1: ratio of A2 to A1 receptor binding Ki
T2 construct: from tissue
T2 sequence (P25099 1-326): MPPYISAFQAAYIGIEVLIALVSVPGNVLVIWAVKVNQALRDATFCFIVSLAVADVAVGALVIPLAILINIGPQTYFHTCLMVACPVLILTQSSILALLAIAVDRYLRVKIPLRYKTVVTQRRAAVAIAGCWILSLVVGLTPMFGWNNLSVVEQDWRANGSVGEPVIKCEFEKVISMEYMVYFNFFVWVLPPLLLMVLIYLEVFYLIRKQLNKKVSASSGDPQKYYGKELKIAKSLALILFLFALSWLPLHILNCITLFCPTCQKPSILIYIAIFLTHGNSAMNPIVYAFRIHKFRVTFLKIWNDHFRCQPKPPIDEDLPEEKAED
From the text: as §1, §2

A1 receptor = conditions: literature, qualitative; cited from earlier work
[2] = radioligand [3H]-CGS 21680, read-out: A2 Receptor Binding (Ki)
[3] = ED50, DMCM-induced seizures in vivo

T1 sequence (P30543 whole entry): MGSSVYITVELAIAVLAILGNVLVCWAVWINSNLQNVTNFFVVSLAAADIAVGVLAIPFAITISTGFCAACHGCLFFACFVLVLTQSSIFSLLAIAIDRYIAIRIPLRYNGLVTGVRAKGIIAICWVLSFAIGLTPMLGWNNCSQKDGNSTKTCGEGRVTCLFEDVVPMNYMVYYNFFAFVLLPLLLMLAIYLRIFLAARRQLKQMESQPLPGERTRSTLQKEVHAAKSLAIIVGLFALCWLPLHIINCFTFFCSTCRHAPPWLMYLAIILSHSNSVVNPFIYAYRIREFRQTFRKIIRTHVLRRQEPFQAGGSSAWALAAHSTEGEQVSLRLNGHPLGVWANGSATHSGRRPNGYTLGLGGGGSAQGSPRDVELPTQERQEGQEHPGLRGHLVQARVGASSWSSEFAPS

| Structure (SMILES) | Ki (adenosine A2 receptor; [2]) [nM] | Ki (adenosine A1 receptor) [nM] | Ratio A2/A1 (adenosine A1 receptor) | ED50 [1, 3] [mg/kg] | selectivity for the A1 receptor over the A2 receptor (in words) (A1 receptor) | ED50 [1] [mg/kg] | Ki (adenosine A2 receptor) [nM] |
| --- | --- | --- | --- | --- | --- | --- | --- |
| OC[C@H]1O[C@@H](n2cnc3c(NC4CCCC4)nc(Cl)nc32)[C@H](O)[C@@H]1O [CCPA, 2-chloro-N-cyclopentyladenosine] | – | – | – | – | most selective for the A1 receptor over the A2 receptor | – | – |
| C[C@H](Cc1ccccc1)Nc1ncnc2c1ncn2[C@@H]1O[C@H](CO)[C@@H](O)[C@H]1O [R-PIA, (R)-N-(1-phenyl-2-propyl)adenosine, reference compound] | – | – | – | – | – | 0.5 | – |
| OC[C@H]1O[C@@H](n2cnc3c(NC4CCCC4)ncnc32)[C@H](O)[C@@H]1O [CPA, N-(cyclopentyl)adenosine, reference compound] | – | – | – | – | – | 0.2 | 192 |

Continued, in another order:

| Ki (adenosine A2 receptor; [2]) [nM] | Ki (adenosine A1 receptor) [nM] | Ratio A2/A1 (adenosine A1 receptor) | Structure (SMILES) | ED50 [1, 3] [mg/kg] | selectivity for the A1 receptor over the A2 receptor (in words) (A1 receptor) | ED50 [1] [mg/kg] | Ki (adenosine A2 receptor) [nM] |
| --- | --- | --- | --- | --- | --- | --- | --- |
| 6600 | 11 | 600 | CN(C)Nc1nc(Cl)nc2c1ncn2[C@@H]1O[C@H](CCl)[C@@H](O)[C@H]1O [Example 11, 2,5'-Dichloro-5'-deoxy-N-(dimethylamino)adenosine] | 4.7 | – | – | – |
| 2740 | 6.4 | 428 | O[C@@H]1[C@H](O)[C@@H](CCl)O[C@H]1n1cnc2c(NN3CCCCC3)nc(Cl)nc21 [Example 1, 2,5'-Dichloro-5'-deoxy-N-(1-piperidinyl)adenosine] | 0.4 | – | – | – |
| 4660 | 74 | 63 | CONc1nc(Cl)nc2c1ncn2[C@@H]1O[C@H](CCl)[C@@H](O)[C@H]1O [Example 12, 2,5'-Dichloro-5'-deoxy-N-methoxyadenosine] | 6.1 | – | – | – |
| 2420 | 5.3 | 457 | O[C@@H]1[C@H](O)[C@@H](CF)O[C@H]1n1cnc2c(NN3CCCCC3)nc(Cl)nc21 [Example 18, 2-Chloro-5'-deoxy-5'-fluoro-N-(1-piperidinyl)adenosine] | 1 | – | – | – |

Reference: patent US5589467A, “2,5',N6-trisubstituted adenosine derivatives” (Novo Nordisk A/S, priority 1993, dated 1996)
